Measurements taken from patent publication US8067447B2, “Modulators of glucocorticoid receptor, AP-1, and/or NF-κB activity and use thereof” (Bristol-Myers Squibb Company, priority 2006, dated 2011).
Read-outs that look alike come from different tables or passages of the source.

Experiments:
[1] = tested on: AP-1 induced transcriptional activity; assay: Cellular Transrepressional Assay (AP-1 luciferase reporter in A549 cells, PMA-activated); type: cell-based; conditions: A549 cells with 7x AP-1 luciferase reporter, 10 ng/ml PMA, read-out: AP-1 (EC50, nM) (Cellular Transrepression Assay)
Method in brief: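 Stable A549 AP-1 (7× sites) luciferase reporter line stimulated with 10 ng/ml PMA plus test molecules (0.1 nM to 40 μM) for 7 h. Luminescence read after 10 min with luciferase reagent; EC50 from % decrease of PMA-induced signal.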

[2] = molecular target: T1, human full-length glucocorticoid receptor (Homo sapiens, UniProt P04150); assay: Glucocorticoid Receptor Binding Assay (II), fluorescence polarization competitor kit (Fluormone GS1); conditions: cell lysate with recombinant human full-length GR, 1 nM Fluormone GS1, FP
T1 construct: a cell lysate containing recombinantly expressed human full-length glucocorticoid receptor; purchased PanVera Co., Madison, Wis; P2816
T1 sequence (P04150 1-777): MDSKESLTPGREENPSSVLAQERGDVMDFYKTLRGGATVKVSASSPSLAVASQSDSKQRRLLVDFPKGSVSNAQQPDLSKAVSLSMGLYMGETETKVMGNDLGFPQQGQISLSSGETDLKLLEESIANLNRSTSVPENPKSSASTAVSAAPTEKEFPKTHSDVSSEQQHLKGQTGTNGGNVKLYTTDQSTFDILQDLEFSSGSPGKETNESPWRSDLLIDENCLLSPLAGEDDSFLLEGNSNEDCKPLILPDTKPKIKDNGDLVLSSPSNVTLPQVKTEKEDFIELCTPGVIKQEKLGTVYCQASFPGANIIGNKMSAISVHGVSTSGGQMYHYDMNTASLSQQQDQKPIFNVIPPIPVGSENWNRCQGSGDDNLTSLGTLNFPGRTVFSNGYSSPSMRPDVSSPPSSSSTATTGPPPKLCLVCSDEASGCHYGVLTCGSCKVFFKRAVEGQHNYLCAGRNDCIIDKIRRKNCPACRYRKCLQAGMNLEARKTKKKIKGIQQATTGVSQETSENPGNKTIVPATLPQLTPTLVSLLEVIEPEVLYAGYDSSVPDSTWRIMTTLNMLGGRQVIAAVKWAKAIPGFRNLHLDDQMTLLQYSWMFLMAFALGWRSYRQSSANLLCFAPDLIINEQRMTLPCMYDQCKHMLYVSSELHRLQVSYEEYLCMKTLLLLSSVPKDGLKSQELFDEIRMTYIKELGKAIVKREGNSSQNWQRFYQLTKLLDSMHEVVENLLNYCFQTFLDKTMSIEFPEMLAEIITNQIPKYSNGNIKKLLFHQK
Method in brief: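 Recombinant full-length human GR in cell lysate competed against 1 nM fluorescent glucocorticoid tracer (Fluormone GS1) with or without test compound. Fluorescence polarization read after 1 h at room temperature.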

Row | Compound | EC50 ([1]; Homo sapiens, A549, 7 h) | Ki [2] | EC50 ([1]; 7 hours)
1 | Cc1ccc(CC(c2ccc3c(cnn3-c3ccc(F)cc3)c2)C(C)(C)C(=O)Nc2nncs2)cc1 (stereo not shown) [Example 127, 3-(1-(4-fluorophenyl)-1H-indazol-5-yl)-2,2-dimethyl-N-(1,3,4-thiadiazol-2-yl)-4-p-tolylbutanamide] | > 10000 nM | 3.8 nM | –
2 | CC(C(=O)Nc1nncs1)C(c1ccccc1)c1ccc2[nH]ncc2c1 (single isomer, unassigned) [151-diast B, 3-(1H-Indazol-5-yl)-2-methyl-3-phenyl-N-(1,3,4-thiadiazol-2-yl)propanamide] | – | 283 nM | 1740 nM
3 | CC(C)C(C(=O)Nc1nncs1)C(c1ccccc1)c1ccc2c(cnn2-c2ccc(F)cc2)c1 (stereo not shown) [Example 144, 2-((1-(4-fluorophenyl)-1H-indazol-5-yl)(phenyl)methyl)-3-methyl-N-(1,3,4-thiadiazol-2-yl)butanamide] | 2 nM | 2 nM | –
4 | CC(C)(C(=O)NC1CCOCC1)C(Cc1ccccc1)c1ccc2c(cnn2-c2ccc(F)cc2)c1 (stereo not shown) [Example 132, 3-(1-(4-fluorophenyl)-1H-indazol-5-yl)-2,2-dimethyl-4-phenyl-N-(tetrahydro-2H-pyran-4-yl)butanamide] | > 10000 nM | 7.8 nM | –
5 | O=C(Nc1nncs1)C(Cc1ccccc1)C(c1ccccc1)c1ccc2c(cnn2-c2ccc(F)cc2)c1 (stereo not shown) [Example 146, 2-benzyl-3-(1-(4-fluorophenyl)-1H-indazol-5-yl)-3-phenyl-N-(1,3,4-thiadiazol-2-yl)propanamide] | 2 nM | 1.5 nM | –
6 | CC(CO)(C(=O)Nc1nncs1)C(c1ccccc1)c1ccc2c(cnn2-c2ccc(F)cc2)c1 (stereo not shown) [Example 155, 3-(1-(4-Fluorophenyl)-1H-indazol-5-yl)-2-(hydroxymethyl)-2-methyl-3-phenyl-N-(1,3,4-thiadiazol-2-yl)propanamide] | 1770 nM | 4.3 nM | –
7 | CCCC(c1ccc2c(cnn2-c2ccc(F)cc2)c1)C(C)(C)C(=O)Nc1nncs1 (stereo not shown) [Example 46, 3-(1-(4-fluorophenyl)-1H-indazol-5-yl)-2,2-dimethyl-N-(1,3,4-thiadazol-2-yl)hexanamide] | 18 nM | 1.7 nM | –
8 | CCC(CC)(C(=O)Nc1nncs1)C(c1ccccc1)c1ccc2c(cnn2-c2ccc(F)cc2)c1 (stereo not shown) [Example 149, 2-ethyl-2-((1-(4-fluorophenyl)-1H-indazol-5-yl)(phenyl)methyl)-N-(1,3,4-thiadiazol-2-yl)butanamide] | 130 nM | 4.7 nM | –
9 | CCCC(C(=O)Nc1nncs1)C(c1ccccc1)c1ccc2c(cnn2-c2ccc(F)cc2)c1 (stereo not shown) [Example 143, 2-((1-(4-fluorophenyl)-1H-indazol-5-yl)(phenyl)methyl)-N-(1,3,4-thiadiazol-2-yl)pentanamide] | 2 nM | 1.7 nM | –
10 | CCC(C(=O)Nc1nncs1)C(c1ccccc1)c1ccc2c(cnn2-c2ccc(F)cc2)c1 (stereo not shown) [Example 142, 2-((1-(4-Fluorophenyl)-1H-indazol-5-yl)(phenyl)methyl)-N-(1,3,4-thiadiazol-2-yl)butanamide] | 0.55 nM | 1.1 nM | –
11 | COC(=O)c1ccc(-n2ncc3cc(C(c4ccccc4)C(C)(C)C(=O)Nc4nncs4)ccc32)cc1 (stereo not shown) [Example 88, methyl 4-(5-(3-(1,3,4-thiadiazol-2-ylamino)-2,2-dimethyl-3-oxo-1-phenylpropyl)-1H-indazol-1-yl)benzoate] | > 10000 nM | 26 nM | –
12 | CC(C)(C(=O)Nc1nncs1)C(c1ccccc1)c1ccc2c(cnn2-c2ccc(C(=O)O)cc2)c1 (stereo not shown) [Example 89, 4-(5-(3-(1,3,4-thiadiazol-2-ylamino)-2,2-dimethyl-3-oxo-1-phenylpropyl)-1H-indazol-1-yl)benzoic acid] | > 10000 nM | 27 nM | –
13 | CC(C)CC1(c2ccc3c(cnn3-c3ccc(F)cc3)c2)CC1C(=O)Nc1nccs1 (mixture of isomers) [Example 100, Cis and trans-2-(1-(4-fluorophenyl)-1H-indazol-5-yl)-2-isobutyl-N-(thiazol-2-yl)cyclopropanecarboxamide] | 290 nM | 102 nM | –
14 | CC(C)(C(=O)Nc1nccs1)C(c1ccc(F)cc1)c1ccc2c(cnn2-c2ccc(F)cc2)c1 (stereo not shown) [Example 44, 3-(4-fluorophenyl)-3-(1-(4-fluorophenyl)-1H-indazol-5-yl)-2,2-dimethyl-N-(thiazol-2-yl)propanamide] | 14 nM | 2.4 nM | –
